# Results reported in paper PMC9773353 (ACS Omega, 2022).
# Values joined by “and” are separate entries in the source; they are usually repeats but may differ in a detail not shown here. Identical values can stand only once.
# How the values were obtained:
# hCA XII = hCA XII (Homo sapiens, UniProt O43570); assay: Carbonic anhydrase inhibition assay; type: biochemical
# [1] = MTT cell viability assay, HEK-293 T normal cells; type: cell-based; conditions: human, HEK-293 T normal cells; for viability at 100 µM: % cell viability ± SD (HEK-293 T cells), 24–48 h incubation, MTT, vs untreated control
# hCA II = hCA II (Homo sapiens, UniProt P00918); assay: Carbonic anhydrase inhibition assay; type: biochemical; conditions: for inhibition of hCA-II in words: text grading of Table 4 results; for IC50: IC50 ± SEM hCA II, mean of three independent experiments
# hCA IX = hCA IX (Homo sapiens, UniProt Q16790); assay: biochemical
# BHK-21 normal cells = assay: MTT cell viability assay, BHK-21 normal cells; type: cell-based; conditions: 100 μM, 24–48 h incubation; for % cell viability ± SD (BHK-21 cells): vs untreated control
# HEK-293 T normal cells = assay: MTT cell viability assay, HEK-293 T normal cells; type: cell-based; conditions: 100 μM, 24–48 h incubation, MTT; for % cell viability ± SD (HEK-293 T cells): vs untreated control
# Chain of hCA XII (O43570 25-354): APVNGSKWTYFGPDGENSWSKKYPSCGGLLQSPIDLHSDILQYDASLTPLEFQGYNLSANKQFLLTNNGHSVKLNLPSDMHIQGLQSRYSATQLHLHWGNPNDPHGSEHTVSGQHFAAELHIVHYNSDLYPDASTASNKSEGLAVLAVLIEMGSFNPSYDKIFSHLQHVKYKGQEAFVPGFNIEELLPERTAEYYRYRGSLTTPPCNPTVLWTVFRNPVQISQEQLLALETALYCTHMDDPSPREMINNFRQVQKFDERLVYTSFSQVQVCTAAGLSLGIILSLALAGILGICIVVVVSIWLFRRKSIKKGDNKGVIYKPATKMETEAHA
IC50 (hCA XII) [µM],inhibition of hCA-II in words (hCA II),IC50 (hCA IX) [µM],IC50 (hCA II),Compound,cytotoxicity at 100 µM [1] [%],viability at 100 µM [1] [%],% cytotoxicity ± SD (BHK-21 cells) (BHK-21 normal cells) [%],% cell viability ± SD (BHK-21 cells) (BHK-21 normal cells) [%],% cytotoxicity ± SD (HEK-293 T cells) (HEK-293 T normal cells) [%],% cell viability ± SD (HEK-293 T cells) (HEK-293 T normal cells) [%]
0.58 ± 0.06,did not show any inhibition,–,–,"COc1ccc(C(=O)Nc2cc(Cl)c(O)c(Cl)c2)cc1OC [Compound 12, N-(3,5-Dichloro-4-hydroxyphenyl)-3,4-dimethoxybenzamide]",26.6 ± 0.06,73 ± 0.1,–,–,–,–
2.99 ± 0.32,–,0.17 ± 0.05,1.19 µM and 1.18 µM,"Cc1cc(C)cc(C(=O)Nc2cc(Cl)c(S(N)(=O)=O)cc2S(N)(=O)=O)c1 [Compound 11, N-(5-Chloro-2,4-disulfamoylphenyl)-3,5-dimethylbenzamide]",27 ± 0.06,72 ± 0.6,–,–,–,–
–,–,10.4 ± 1.45,–,"Cc1ccc(C(=O)Nc2cccc(C(=O)O)c2)c(C)c1 [Compound 13, 3-(2,4-Dimethylbenzamido) Benzoic Acid]",14 ± 0.09,86 ± 0.6,–,–,–,–
–,–,9.76 ± 1.03,0.38 ± 0.01 µM,"Cc1ccc(C(=O)NC(=S)Nc2ccc(C(=O)O)cc2)c(C)c1 [Compound 25, 4-(3-(2,4-Dimethylbenzoyl)thioureido) Benzoic Acid]",2 ± 0.02,> 90,–,–,–,–
–,–,–,–,"3-(3-(3,4-Dimethoxybenzoyl) thioureido) Benzoic Acid [Compound 21]",–,–,51.5 ± 0.06,48 ± 0.1,13 ± 0.05,86 ± 0.6
0.95 ± 0.08,moderate inhibition,–,6.49 ± 0.63 µM,"Cc1cc(C)cc(C(=O)Nc2cc([N+](=O)[O-])ccc2Cl)c1 [Compound 14, N-(2-Chloro-5-nitrophenyl)-3,5-dimethylbenzamide]",15 ± 0.4,85 ± 0.1,–,–,–,–
–,moderate inhibition,1.71 ± 0.65,11.5 ± 0.16 µM,"COc1ccc(C(=O)NC(=S)Nc2cc(Cl)c(S(N)(=O)=O)cc2S(N)(=O)=O)cc1OC [Compound 17, N-((5-Chloro-2,4-disulfamoylphenyl)carbamothioyl)-3,4-dimethoxybenzamide]",3 ± 0.04,97 ± 0.3,–,–,–,–
–,did not show any inhibition,–,–,"N-((2-Hydroxyphenyl) carbamothioyl)-3,4-dimethoxybenzamide [Compound 20]",–,–,54.6 ± 0.02,45 ± 0.09,13 ± 0.03,86 ± 0.07
1.68 ± 0.15,moderate inhibition,0.21 ± 0.09,4.17 ± 0.29 µM,"COc1ccc(C(=O)NC(=S)Nc2ccc(C(=O)O)cc2)cc1OC [Compound 18, 4-(3-(3,4-Dimethoxybenzoyl)thioureido) Benzoic Acid]",24 ± 0.07,75,–,–,–,–
4.29 ± 0.24,–,4.93 ± 1.83,0.26 ± 0.03 µM,"COc1ccc(C(=O)NC(=S)Nc2cc([N+](=O)[O-])ccc2Cl)cc1OC [Compound 22, N-((2-Chloro-5-nitrophenyl)carbamothioyl)-3,4-dimethoxybenzamide]",9 ± 0.05,> 90,–,–,–,–
–,did not show any inhibition,–,–,"N-((3-Bromo-5-(trifluoromethyl) phenyl) carbamothioyl)-3,4-dimethoxybenzamide [Compound 23]",–,–,65.0 ± 0.06,–,26 ± 0.06,–
2.02 ± 0.28,moderate inhibition,1.28 ± 0.09,4.45 ± 0.11 µM,"Cc1cc(C)cc(C(=O)NC(=S)Nc2cc(Cl)c(O)c(Cl)c2)c1 [Compound 26, N-((3,5-Dichloro-4-hydroxyphenyl)carbamothioyl)-3,5-dimethylbenzamide]",2 ± 0.06,> 90,–,–,–,–
9.9 ± 0.66,–,1.25 ± 0.02,1.24 ± 0.96 µM,"Cc1cc(C)cc(C(=O)NC(=S)Nc2ccccc2O)c1 [Compound 24, N-((2-Hydroxyphenyl)carbamothioyl)-3,5-dimethylbenzamide]",18 ± 0.03,81 ± 0.1,–,–,–,–
1.05 ± 0.11,–,–,1.93 ± 0.15 µM,"Cc1cc(C)cc(C(=O)Nc2cc(Br)cc(C(F)(F)F)c2)c1 [Compound 15, N-(3-Bromo-5-(trifluoromethyl)phenyl)-3,5-dimethylbenzamide]",18 ± 0.6,82 ± 0.6,–,–,–,–
–,–,1.01 ± 0.05,0.725 µM and 0.72 µM,"COc1ccc(C(=O)NC(=S)Nc2c(Cl)cc([N+](=O)[O-])cc2Br)cc1OC [Compound 19, N-((2-Bromo-6-chloro-4-nitrophenyl)carbamothioyl)-3,4-dimethoxybenzamide]",50 ± 0.08,49 ± 0.6,–,–,–,–
